# Settings: 5 mM DMSO-solutions
row,Structure (SMILES),solubility in DMSO
1,"COc1ccc(-c2cn(-c3cc(C(=O)O)cc(-c4ccc(C5CCNCC5)cc4)c3)nn2)cc1OC [Compound 95, 5-(4-(3,4-Dimethoxyphenyl)-1H-1,2,3-triazol-1-yl)-4′-(piperidin-4-yl)-[1,1′-biphenyl]-3-carboxylic Acid]",low solubility
2,"CCCCCOc1ccc(-c2cn(-c3cc(C(=O)O)cc(-c4ccc(C5CCNCC5)cc4)c3)nn2)cc1 [Compound 82, 5-(4-(4-(Pentyloxy)phenyl)-1H-1,2,3-triazol-1-yl)-4′-(piperidin-4-yl)-[1,1′-biphenyl]-3-carboxylic Acid]",low solubility
3,"CC(C)(C)c1ccc(-c2cn(-c3cc(C(=O)O)cc(-c4ccc(C5CCNCC5)cc4)c3)nn2)cc1 [Compound 79, 5-(4-(4-(tert-Butyl)phenyl)-1H-1,2,3-triazol-1-yl)-4′-(piperidin-4-yl)-[1,1′-biphenyl]-3-carboxylic Acid]",low solubility
4,"O=C(O)c1cc(-c2ccc(C3CCNCC3)cc2)cc(-n2cc(-c3cc4ccccc4o3)nn2)c1 [Compound 101, 5-(4-(Benzofuran-2-yl)-1H-1,2,3-triazol-1-yl)-4′-(piperidin-4-yl)-[1,1′-biphenyl]-3-carboxylic Acid]",low solubility
